From US11155523B2, “Biphenyl compound as CCR2/CCR5 receptor antagonist” (Medshine Discovery Inc., priority 2016, dated 2021) come the findings set out here.

The target in one assay is T1, CCR5 (Homo sapiens, UniProt P51681).
T1 construct: expressed in transfected cells; host or cells: HEK293, clone C13, passage P4
Kind of assay: CCR5 in vitro test: intracellular calcium signal detected by FLIPR. The class given is cell-based. The settings on record: HEK293 cells expressing CCR5, agonist RANTES at EC80, calcium signal. On the procedure: (§1) Experimental Example 1: CCR2/CCR5 In Vitro Test
(§2) The intracellular calcium signal was detected by FLIPR, and the IC50 value of the compound was used as an index to evaluate the inhibitory effect of the compound on CCR2 and CCR5 receptors.
(§3) 1. Cell line: The cells were inoculated and incubated in a 5% CO2 incubator at 37° C. overnight.
(§4) CCR2/CCR5 density: 1 M (20 k/well)
(§5) 2. Reagents: Fluo-4 Direct, (Invitrogen, Cat #F10471)
(§6) The compound was dissolved in DMSO to prepare a 10 mM solution, and the compound solution was placed in a nitrogen box.
(§7) Agonist reference compounds:
(§8) Preparation of probenecid in FLIPR assay buffer: 1 mL of FLIPR assay buffer was added to […] of probenecid to prepare a 250 mM solution, which is prepared fresh daily.
(§9) 2× (8 μM) Fluo-4 Direct™ Loading Buffer (per 10 mL) • Thaw a bottle of Fluo-4 Direct™ crystal (F10471). • Add 10 mL of FLIPR assay buffer to the vial. • Add 0.2 mL of probenecid to each 10 mL of Fluo-Direct. The final concentration of the assay was 2.5 mM. • Rotate it and place for >5 minutes (in absence of light). • Prepare fresh daily.
(§10) MCP-1 was diluted in FLIPR assay buffer 1:2 into 10 points, starting at 0.5 uM (final 100 nM). RANTES was diluted in FLIPR assay buffer 1:3 into 10 points, starting at 0.5 uM (final 100 nM). 20 uL of serially diluted compound buffer was added to each well of the DRC plate according to the compound plate map.
(§11) Standard compound was diluted in DMSO 1:3 into 11 points, starting at 1 mM. Test compound was diluted in DMSO 1:3 into 11 points, starting at 2 mM. 250 nL of compound solution was transferred into a cell plate using Echo (Greiner #781946).
(§12) (c) Take the cell plate out of the incubator, and gently dispense 20 uL of 2× Fluo-4 Direct wash-free loading buffer into a 384-well cell culture plate using a pipette. The final cell plate is 40 μL in volume.
(§13) (d) Incubate for 50 minutes at 37° C. under 5% CO2, and for 10 minutes at room temperature.
(§14) (e) Take the cell plate out of the incubator, and place it in FLIPR. Place the composite plate and the tip box in FLIPR.
(§15) (f) For DRC plate: • 1) Run the program on FLIPRTETRA. • 2) Read the fluorescent signal. • 3) Transfer 10 μL of compound from the DRC plate to the cell plate. • 4) Read the fluorescent signal. • 5) Calculate the “maximum−minimum” from Read 90 to the maximum allowed. Use FLIPR to calculate the EC80 value of each cell line. • 6) Prepare 5×EC80 concentration of the agonist reference compound.
(§16) (g) For the composite plate (1-add): • 1) Run the program on FLIPRTETRA. • 2) Transfer 10 μl, of 5×EC80 concentration of the agonist reference compound from the composite plate to the cell plate. • 3) Read the fluorescent signal. • 4) Calculate the “maximum−minimum” from Read 90 to the maximum allowed.
(§17) (h) Analyze the data using Prism, and calculate the IC50 value of the compound.
In general terms: Calcium flux is commonly read through the fluorescence of an indicator in the cells.

The next assay deals with T2, CCR2 (Homo sapiens, UniProt P41597).
T2 construct: expressed in transfected cells; host or cells: HEK293, clone C7, passage P6
T2 sequence (P41597 whole entry, species assumed): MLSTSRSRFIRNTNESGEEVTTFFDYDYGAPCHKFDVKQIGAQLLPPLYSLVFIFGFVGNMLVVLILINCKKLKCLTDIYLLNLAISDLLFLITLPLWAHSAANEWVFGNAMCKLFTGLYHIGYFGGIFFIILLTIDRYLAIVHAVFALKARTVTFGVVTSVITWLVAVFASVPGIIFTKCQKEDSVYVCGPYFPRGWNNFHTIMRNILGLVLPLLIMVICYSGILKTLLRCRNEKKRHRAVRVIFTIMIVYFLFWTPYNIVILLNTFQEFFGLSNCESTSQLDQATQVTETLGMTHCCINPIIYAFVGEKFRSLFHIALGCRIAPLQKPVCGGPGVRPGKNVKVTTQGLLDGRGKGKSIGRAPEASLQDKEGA
Briefly: CCR2 in vitro test: intracellular calcium signal detected by FLIPR. The settings on record: HEK293 cells expressing CCR2, agonist MCP-1 at EC80, calcium signal. The class given is cell-based. On the procedure:
as §1, §2, §3, §4, §5, §6, §7, §8, §9, §10, §11, §12, §13, §14, §15, §16, §17

T1 sequence (P51681 whole entry, species assumed): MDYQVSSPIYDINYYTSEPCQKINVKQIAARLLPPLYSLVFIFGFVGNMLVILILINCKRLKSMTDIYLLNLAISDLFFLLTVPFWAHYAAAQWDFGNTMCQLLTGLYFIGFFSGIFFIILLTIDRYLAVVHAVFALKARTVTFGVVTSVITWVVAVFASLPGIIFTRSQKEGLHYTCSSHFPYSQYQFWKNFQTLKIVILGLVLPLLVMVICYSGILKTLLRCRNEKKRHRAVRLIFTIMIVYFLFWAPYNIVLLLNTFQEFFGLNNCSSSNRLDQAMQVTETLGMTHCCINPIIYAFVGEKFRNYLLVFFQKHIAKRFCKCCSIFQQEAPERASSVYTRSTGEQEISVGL

Turning to `CCCCOCCOc1ccc(-c2ccc(OC)c(/C=C/C(=O)Nc3ccc([S@@+]([O-])Cc4cncn4CC)cc3)c2)cc1` [WX040], the IC50 (usually the midpoint of a concentration-inhibition curve) on CCR5 is 10.5 nM; at CCR2, 11.3 nM.
The corresponding values for `CCCCOCCOc1ccc(-c2ccc(C)c(/C=C/C(=O)Nc3ccc([S+]([O-])Cc4cncn4CC)cc3)c2)cc1` (centres unmarked) [WX041] are 21.4 nM and 22.5 nM.
Taken in the same sequence, the figures for `CCCCOCCOc1ccc(-c2cc(C)c(OC)c(/C=C/C(=O)Nc3ccc([S@@+]([O-])Cc4cncn4CCC)cc3)c2)cc1` [WX042] were 4 nM and 52.8 nM.
Taken in the same sequence, the figures for `CCCCOCCOc1ccc(-c2cc(/C=C/C(=O)Nc3ccc([S@@+]([O-])Cc4cncn4CCC)cc3)c(OC)cc2Cl)cc1` [WX043] were 9.1 nM and 250 nM.
As for `CCCCOCCOc1ccc(-c2ccc(C#N)c(/C=C/C(=O)Nc3ccc([S@@+]([O-])Cc4cncn4CCC)cc3)c2)cc1` [WX044], the results for the IC50 at CCR5 and on CCR2 were 16.1 nM and 293 nM, respectively.
Consider `CCCCOCCOc1ccc(-c2ccc(OC)c(/C=C/C(=O)Nc3ccc([S+]([O-])Cc4c(C)ncn4CC)cc3)c2)cc1` (centres unmarked) [WX045], for which the IC50 at CCR5 turned out to be 14.8 nM; at CCR2, 77.6 nM.
Taken in the same sequence, the figures for `CCCCOCCOc1ccc(-c2ccc(OC(F)F)c(/C=C/C(=O)Nc3ccc([S@+]([O-])Cc4c(C)ncn4CC)cc3)c2)cc1` [WX046] were 2.8 nM and 1.1 nM.
The corresponding values for `CCCCOc1ccc(-c2ccc(OC)c(/C=C/C(=O)Nc3ccc([S@@+]([O-])Cc4cncn4CCC)cc3)c2)cc1` [WX048] are 2.6 nM and 11.8 nM.
Taken in the same sequence, the figures for `CCCCOCCOc1ccc(-c2ccc(O)c(/C=C/C(=O)Nc3ccc([S@@+]([O-])Cc4cncn4CCC)cc3)c2)cc1` [WX049] were 9.2 nM and 13.3 nM.
Take `CCCOCCOc1ccc(-c2ccc(OC)c(/C=C/C(=O)Nc3ccc([S@@+]([O-])Cc4cncn4CCC)cc3)c2)cc1` [WX050]: the IC50 at CCR5 was 20.8 nM; on CCR2, 12.6 nM.
The corresponding values for `CCCCOCCOc1ccc(-c2ccc(OC(F)F)c(/C=C/C(=O)Nc3ccc([S@@+]([O-])Cc4cncn4CCC)cc3)c2)cc1` [WX051] are 1.4 nM and 5.5 nM.
Taken in the same sequence, the figures for `CCCOc1ccc(-c2ccc(OC(F)F)c(/C=C/C(=O)Nc3ccc([S@@+]([O-])Cc4cncn4CCC)cc3)c2)cc1` [WX052] were 11.9 nM and 80.8 nM.
The corresponding values for `CCCCOCCOc1ccc(-c2cc(Cl)c(OC)c(/C=C/C(=O)Nc3ccc([S@@+]([O-])Cc4cncn4CCC)cc3)c2)cc1` [WX053] are 1.3 nM and 5.9 nM.
On to `CCCCOCCOc1ccc(-c2ccc(OC(F)(F)F)c(/C=C/C(=O)Nc3ccc([S@@+]([O-])Cc4c(C)ncn4CC)cc3)c2)cc1` [WX054], for which the IC50 on CCR5 was 9.2 nM; on CCR2, 43.4 nM.
The corresponding values for `CCCCOCCOc1ccc(-c2ccc(OC(F)(F)F)c(/C=C/C(=O)Nc3ccc([S@+]([O-])Cc4c(C)ncn4CC)cc3)c2)cc1` [WX055] are 6.4 nM and 7.6 nM.
The corresponding values for `CCCCOCCOc1ccc(-c2ccc(OC)c(/C=C/C(=O)Nc3ccc([S+]([O-])Cc4cnccc4C)cc3)c2)cc1` (centres unmarked) [WX056] are 16.6 nM and 71.1 nM.
Taken in the same sequence, the figures for `CCCCOCCOc1ccc(-c2ccc([S+]([O-])C(C)C)c(/C=C/C(=O)Nc3ccc([S@@+]([O-])Cc4c(C)ncn4CC)cc3)c2)cc1` (some centres unmarked) [WX057] were 3.5 nM and 24.7 nM.
`CCCCOCCOc1ccc(-c2ccc(SC(C)C)c(/C=C/C(=O)Nc3ccc([S@@+]([O-])Cc4cncn4CCC)cc3)c2)cc1` [WX058]: the IC50 at CCR5 amounted to 5.7 nM; at CCR2, 28.2 nM.
Regarding `CCCCOCCOc1ccc(-c2cc(C)cc(/C=C/C(=O)Nc3ccc([S@@+]([O-])Cc4cncn4CCC)cc3)c2)cc1` [WX059], the values for the IC50 at CCR5 and on CCR2 were 8.5 nM and 9.9 nM, respectively.
The corresponding values for `CCCCOCCOc1ccc(-c2ccc(C(F)(F)F)c(/C=C/C(=O)Nc3ccc([S@@+]([O-])Cc4cncn4CCC)cc3)c2)cc1` [WX060] are 4.1 nM and 18.5 nM.
Taken in the same sequence, the figures for `CCCCOCCOc1ccc(-c2ccc(OC(F)F)c(/C=C/C(=O)Nc3ccc([S@@+]([O-])Cc4c(C)ncn4CC)cc3)c2)cc1` [WX061] were 15.2 nM and 8.9 nM.
Taken in the same sequence, the figures for `CCCOc1ccc(-c2ccc(OC(F)F)c(/C=C/C(=O)Nc3ccc([S@@+]([O-])Cc4c(C)ncn4CC)cc3)c2)cc1` [WX062] were 20.5 nM and 84.5 nM.
On to `CCCOc1ccc(-c2ccc(OC(F)F)c(/C=C/C(=O)Nc3ccc([S@+]([O-])Cc4c(C)ncn4CC)cc3)c2)cc1` [WX063], for which the IC50 came out at 1.4 nM on CCR5 and 9.4 nM at CCR2.
Taken in the same sequence, the figures for `CCCOCCOc1ccc(-c2ccc(OC(F)F)c(/C=C/C(=O)Nc3ccc([S@@+]([O-])Cc4cncn4CCC)cc3)c2)cc1` [WX064] were 6.1 nM and 12.8 nM.
Taken in the same sequence, the figures for `CCCOCCOc1ccc(-c2ccc(OC)c(/C=C/C(=O)Nc3ccc([S@@+]([O-])Cc4c(C)ncn4CC)cc3)c2)cc1` [WX065] were 68 nM and 49.6 nM.
Consider `CCCOCCOc1ccc(-c2ccc(OC)c(/C=C/C(=O)Nc3ccc([S@+]([O-])Cc4c(C)ncn4CC)cc3)c2)cc1` [WX066], for which the IC50 was 10.1 nM at CCR5 and 6.5 nM at CCR2.
As for `CCCOCCOc1ccc(-c2ccc(OCC)c(/C=C/C(=O)Nc3ccc([S@@+]([O-])Cc4cncn4CCC)cc3)c2)cc1` [WX067], the IC50 at CCR5 was determined as 0.9 nM; on CCR2, 16.8 nM.
For `CCCOCCOc1ccc(-c2ccc(OCC)c(/C=C/C(=O)Nc3ccc([S+]([O-])Cc4c(C)ncn4CCC)cc3)c2)cc1` (centres unmarked) [WX069], the IC50 is 1 nM on CCR5 and 35.3 nM at CCR2.
Taken in the same sequence, the figures for `CCCCOCCOc1ccc(-c2ccc(C(F)(F)F)c(/C=C/C(=O)Nc3ccc([S@@+]([O-])Cc4c(C)ncn4CC)cc3)c2)cc1` [WX070] were 8.4 nM and 39.2 nM.
As for `CCCCOCCOc1ccc(-c2ccc(C(F)(F)F)c(/C=C/C(=O)Nc3ccc([S@+]([O-])Cc4c(C)ncn4CC)cc3)c2)cc1` [WX071], the IC50 came to 3.4 nM at CCR5 and 4.5 nM on CCR2.
As to `CCCCOCCOc1ccc(-c2ccc(C3CCCC3)c(/C=C/C(=O)Nc3ccc([S@@+]([O-])Cc4c(C)ncn4CC)cc3)c2)cc1` [WX072], the IC50 at CCR5 amounted to 5.9 nM; at CCR2, 11.9 nM.
Turning to `CCCCOCCOc1ccc(-c2ccc(C3CCCC3)c(/C=C/C(=O)Nc3ccc([S@+]([O-])Cc4c(C)ncn4CC)cc3)c2)cc1` [WX073], the figures for the concentration for half-maximal inhibition (IC50) at CCR5 and at CCR2 were 6.5 nM and 11.9 nM, respectively.
The corresponding values for `CCCOCCOc1ccc(-c2ccc(OC(F)F)c(/C=C/C(=O)Nc3ccc([S@+]([O-])Cc4c(C)ncn4CC)cc3)c2)cc1` [WX074] are 3.5 nM and 5.4 nM.
Taken in the same sequence, the figures for `CCCCOCCOc1ccc(-c2ccc(OC)c(/C=C/C(=O)Nc3ccc([S@+]([O-])Cc4c(C)ncn4CCC)cc3)c2)cc1` [WX075] were 2.4 nM and 17.3 nM.
The corresponding values for `CCCCOCCOc1ccc(-c2ccc(OC)c(/C=C/C(=O)Nc3ccc([S@@+]([O-])Cc4c(C)ncn4CCC)cc3)c2)cc1` [WX076] are 8.5 nM and 42.2 nM.
`CCCOCCOc1ccc(-c2ccc(OC(F)F)c(/C=C/C(=O)Nc3ccc([S@+]([O-])Cc4c(C)ncn4CCC)cc3)c2)cc1` [WX080]: the values for the IC50 at CCR5 and at CCR2 were 15.1 nM and 25.1 nM, respectively.
The corresponding values for `CCCCOCCOc1ccc(-c2ccc(OC(F)F)c(/C=C/C(=O)Nc3ccc([S@+]([O-])Cc4c(C)ncn4CCC)cc3)c2)cc1` [WX081] are 5.5 nM and 12.5 nM.
